In US20110021483A1, “Platinum (IV) Complexes” (PLATCO TECHNOLOGIES (PROPRIETARY) LIMITED, priority 2007, published 2011):

How the values were obtained:
HT29 cancer cells = assay: Anticancer activity, IC50 from dose response curves, HT29 cells; format: cell-based; settings: concentrations 100, 50, 25, 10, 5 and 1 μM
Description: (§1) All Dose response curves were prepared for each of the chosen complexes, as well as positive controls, in order to obtain IC50 values. The concentrations used were 100, 50, 25, 10, 5 and 1 μM. IC50 values were calculated from the log-dose response curves using GraphPad Prism 4.

Hela cancer cells = assay: Anticancer activity, IC50 from dose response curves, HeLa cells; format: cell-based; settings: concentrations 100, 50, 25, 10, 5 and 1 μM
Description: as §1

MCF7 cancer cells = assay: Anticancer activity, IC50 from dose response curves, MCF7 cells; format: cell-based; settings: concentrations 100, 50, 25, 10, 5 and 1 μM
Description: as §1

HeLa cells = assay: Percent inhibition of HeLa cells at single concentration, 48 h; format: cell-based
Description: The anticancer activity of cis-diammineoxalatochloronitroplatinum(IV) (complex I-A) has been compared to cisplatin against two cell lines for 48 h at 77 uM.

MCF7 cells = assay: Percent inhibition of MCF7 cells at single concentration, 48 h; format: cell-based
physchem = settings: water
[1] = Stability: reduction by cysteine followed by positive ion mass spectra; format: physicochemical; settings: water/37° C./18 h, presence of cysteine
Text: This observation implies that certain platinum(IV) complexes described herein are capable of converting to their corresponding platinum(II) complexes.

[2] = Thermal stability of the solid complex; format: physicochemical

O=C1[O][Pt-2]2([NH2+]C3CCCC[C@H]3[NH2+]2)[O]C1=O (stereo in doubt) [Oxaliplatin, (trans-l-1,2-diaminocyclohexane)oxalatoplatinum(II)]
IC50 (HT29 cancer cells): 12.3 µM | IC50 (Hela cancer cells): 11.9 µM | IC50 (MCF7 cancer cells): 6.21 µM

N.N.[Cl][Pt][Cl] [Cisplatin, cisplatin]
IC50 (HT29 cancer cells): 8.11 µM | Percent inhibition of HeLa cells (HeLa cells; 48 h at 50 uM): 86% | Percent inhibition of HeLa cells (HeLa cells; 48 h at 77 uM): 87% | Percent inhibition of MCF7 cells (MCF7 cells; 48 h at 50 uM): 72% | Percent inhibition of MCF7 cells (MCF7 cells; 48 h at 77 uM): 76% | IC50 (Hela cancer cells): 10.7 µM | IC50 (MCF7 cancer cells): 14.1 µM

[NH2][Pt]1([NH2])([Cl])([N+](=O)[O-])[O]C(=O)C(=O)[O]1 [I-A, cis-diammineoxalatochloronitroplatinum(IV)]
solubility (physchem): 2400 µg/mL

NC1CCCCC1N.O=C([O-])C(=O)[O-].O=N[O-].[Cl-].[Pt+4] (stereo not drawn) [II-A, (trans-l-1,2-diaminocyclohexane)oxalatochloronitro-platinum(IV)]
Reduction to platinum(II) complex upon addition of cysteine [1]: oxaliplatin is formed | IC50 (HT29 cancer cells): 3.07 µM | IC50 (Hela cancer cells): 4.81 µM | Solid complex stable up to (temperature) [2]: up to 210 °C | IC50 (MCF7 cancer cells): 5.86 µM
